In test [1] the target is hERG (Homo sapiens, UniProt Q12809). Description: hERG Fast Patch assay (WuXiApptec). A general note: The hERG channel carries a current that helps repolarise heart muscle cells.
For test [2], the target named is Pim-1 kinase (Homo sapiens, UniProt P11309). Description: Pim-1 kinase inhibition assay (Promega Kinase-Glo). It counts as biochemical. An excerpt:
One illustrative manner in which Pim-1 kinase activity can be determined is by quantifying the amount of ATP remaining in solution after an in vitro Pim-1 kinase reaction. The Kinase-Glo Assay Kit (Promega, Inc., Madison, WI) allows this. The amount of ATP remaining in the solution after the kinase reaction serves as a substrate for the luciferase to catalyze luciferin to oxyluciferin plus one photon of light. Thus, the luminescent signal read by the Luminoskan Ascent Instrument (Thermo Electron Corp., Milford, MA) correlates with the amount of ATP present after the kinase reaction and inversely correlates with the amount of kinase acitivity. […] These assays are set up in duplicate 50ul volumes in white, flat bottom 96 well plates. […] This solution is incubated at 30 degrees Celsius at 360rpm for two hours. Following the incubation, 50ul of Kinase-Glo reagent is added to each well, including all positive and negative control wells, and incubated at room temperature for 15 minutes. […] The IC50 values can then be calculated for each inhibitor tested.
(In general: In Kinase-Glo more light means more ATP remaining.)

Test [3] concerns MV-4-11. Kind of test: In vitro viability assay, MV-4-11. It counts as cell-based. As to the method: (§1) Adherent or suspension cancer cell lines were seeded at 2000-5000 cells/well in a 96-well plate, or 1000-2000 cells/well in a 384-well plate. Suspension cells were treated with drug the same day as seeding, while adherent cells were incubated overnight at 37°Cin 5% CO2 prior to drug treatment. All cells were treated for 72 hours, then lysed with ATPlite (Perkin Elmer) and measured on an Envision microplate reader. IC50 values were determined using GraphPad Prism software.
(§2) Over 35 cell lines were tested, and the most sensitive cell lines from various indications were selected and verified by multiple EC50 determinations (Figure 6). […] Antiproliferative activity using PIM-2 shRNA against FLT3-ITD driven leukemia lines has been observed (Adam (2006) Cancer Res 66:3828-35 data not shown).

For test [4], the system named is MOLM-13. Kind of test: In vitro viability assay, MOLM-13. It counts as cell-based. As to the method:
as §1, §2

The mark [5] stands for this setting: Table IV, Kinase-Glo, 10uM ATP, read-out: IC50 on Pim1.
Where [6] appears, read: Table V, Kinase-Glo, 10uM ATP, read-out: IC50 on Pim1.
Setting [7] is: Table V, cells that print µM, read-out: IC50 on Pim1.

SMILES strings stand for the structures. Where two headings read alike, the source gives them in different places.

Pim-1 kinase, sequence (P11309 whole entry): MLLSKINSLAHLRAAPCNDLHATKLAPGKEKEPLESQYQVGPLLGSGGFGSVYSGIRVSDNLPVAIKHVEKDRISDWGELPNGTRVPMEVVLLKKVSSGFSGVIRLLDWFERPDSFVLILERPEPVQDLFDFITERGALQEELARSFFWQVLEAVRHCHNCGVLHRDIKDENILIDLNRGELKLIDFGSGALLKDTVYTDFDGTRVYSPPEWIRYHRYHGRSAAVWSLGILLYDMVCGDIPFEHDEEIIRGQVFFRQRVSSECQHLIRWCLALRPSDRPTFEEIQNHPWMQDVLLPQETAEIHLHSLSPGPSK
hERG, sequence (Q12809 whole entry): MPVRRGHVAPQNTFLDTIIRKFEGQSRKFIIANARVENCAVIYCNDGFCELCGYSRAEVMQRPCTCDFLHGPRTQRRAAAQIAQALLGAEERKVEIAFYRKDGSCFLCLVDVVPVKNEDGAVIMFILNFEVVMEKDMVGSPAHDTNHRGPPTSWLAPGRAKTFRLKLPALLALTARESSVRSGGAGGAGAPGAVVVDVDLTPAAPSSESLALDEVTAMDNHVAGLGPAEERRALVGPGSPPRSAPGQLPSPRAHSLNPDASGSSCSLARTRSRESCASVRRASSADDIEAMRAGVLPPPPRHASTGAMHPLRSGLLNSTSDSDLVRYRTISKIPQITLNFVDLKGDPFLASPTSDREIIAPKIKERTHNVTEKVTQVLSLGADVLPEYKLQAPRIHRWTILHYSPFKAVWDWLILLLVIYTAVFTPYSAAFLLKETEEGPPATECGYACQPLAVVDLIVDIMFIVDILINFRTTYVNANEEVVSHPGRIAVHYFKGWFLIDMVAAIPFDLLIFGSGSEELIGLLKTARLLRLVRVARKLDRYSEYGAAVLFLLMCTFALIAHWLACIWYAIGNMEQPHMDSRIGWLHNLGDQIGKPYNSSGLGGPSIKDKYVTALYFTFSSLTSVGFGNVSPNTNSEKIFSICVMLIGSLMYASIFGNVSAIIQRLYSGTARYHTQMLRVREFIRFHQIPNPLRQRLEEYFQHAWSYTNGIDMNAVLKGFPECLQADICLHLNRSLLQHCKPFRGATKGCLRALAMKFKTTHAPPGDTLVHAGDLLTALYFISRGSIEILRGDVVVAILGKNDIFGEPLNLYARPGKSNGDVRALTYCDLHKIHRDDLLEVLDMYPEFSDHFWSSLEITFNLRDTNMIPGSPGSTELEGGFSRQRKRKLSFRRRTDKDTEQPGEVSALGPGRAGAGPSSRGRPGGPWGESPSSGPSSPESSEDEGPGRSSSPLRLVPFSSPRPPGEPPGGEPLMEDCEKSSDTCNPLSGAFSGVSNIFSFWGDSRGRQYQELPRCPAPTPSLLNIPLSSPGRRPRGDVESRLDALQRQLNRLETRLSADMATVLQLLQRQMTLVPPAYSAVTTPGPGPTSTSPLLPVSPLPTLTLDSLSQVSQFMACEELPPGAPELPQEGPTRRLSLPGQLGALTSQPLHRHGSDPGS

With `C[C@]1(O)CC[C@H](Nc2ccc3ncc(-c4cccc(OC(F)(F)F)c4)n3n2)CC1` [8-9, 1-Methyl-4-((3-(3-(trifluoromethoxy)phenyl)imidazo[1,2-b]pyridazin-6-yl)amino)-trans-cyclohexanol], in test [1], 26 µM corresponded to half-maximal inhibition (IC50).

In the case of `CC(C)(O)[C@H]1CC[C@H](Nc2ccc3ncc(-c4cccc(OC(F)(F)F)c4)n3n2)CC1` [8-10], the concentration for half-maximal inhibition (IC50) (in general, the concentration at which inhibition is half-maximal) was 0.009 µM in test [2] (setting [5]) and more than 30 µM in test [1].

As for `O=S1(=O)CCC(CNc2ccc3ncc(-c4cccc(OC(F)(F)F)c4)n3n2)CC1` [8-13, 4-(((3-(3-(Trifluoromethoxy)phenyl)imidazo[1,2-b]pyridazin-6-yl)amino)methyl)tetrahydro-2H-thiopyran 1,1-dioxide], the IC50 in test [2] (setting [5]) was found to be 0.058 µM; in test [1], 10 µM.

In the case of `CC(C)(O)[C@H]1CC[C@H](Nc2ccn3ncc(-c4cccc(Cl)c4)c3n2)CC1` [8-63], the 50% inhibitory concentration (IC50) in test [2] (setting [5]) is 0.023 µM.

For `CO[C@H]1CC[C@H](Nc2ccn3ncc(-c4cccc(Cl)c4)c3n2)CC1` [8-64, 3-((3-Chlorophenyl)-N-4-methoxy-trans-cyclohexyl)pyrazolo[1,5-a]pyrimidin-5-amine], the results for the IC50 in test [2] (setting [5]) and in test [1] were 0.068 µM and more than 30 µM, respectively.

In the case of `Clc1cccc(-c2cnn3ccc(NC4CCOCC4)nc23)c1` [8-65, 3-(3-Chlorophenyl)-N-(tetrahydro-2H-pyran-4-yl)pyrazolo[1,5-a]pyrimidin-5-amine], the IC50 in test [2] (setting [5]) was 0.186 µM.

Regarding `O=S1(=O)CCC(CNc2ccn3ncc(-c4cccc(Cl)c4)c3n2)CC1` [8-66, 4-(((3-(3-Chlorophenyl)pyrazolo[1,5-a]pyrimidin-5-yl)amino)methyl)tetrahydro-2H-thiopyran 1.1-dioxide], in test [2] (setting [5]), the half-maximal inhibitory concentration (IC50) stood at 0.164 µM.

As to `CN1CCC(CNc2ccn3ncc(-c4cccc(OC(F)(F)F)c4)c3n2)CC1` [8-67, N-((1-Methylpiperidin-4-yl)methyl)-3-(3-(trifluoromethoxy)phenyl)pyrazolo[1,5-a]pyrimidin-5-amine], in test [2] (setting [5]), the 50% inhibitory concentration (IC50) worked out at 0.045 µM.

Take `N[C@H]1CC[C@H](Nc2ccc3ncc(-c4cccc(Cl)c4)n3n2)CC1` [8-68, N1-(3-(3-Chlorophenyl)imidazo[1,2-b]pyridazin-6-yl)cyclohexane-1,4-trans-diamine]: the IC50 in test [2] (setting [5]) worked out at 0.004 µM.

`NC1CCCC(Nc2ccc3ncc(-c4cccc(Cl)c4)n3n2)C1` (stereo not drawn) [8-70, N^1-(3-(3-chlorophenyl)imidazo[1,2-b]pyridazin-6-yl)cyclohexane-1,3-diamine]: the half-inhibitory concentration (IC50) in test [2] (setting [5]) worked out at 0.008 µM.

Take `N[C@H]1CCCN(c2ccc3ncc(-c4cccc(Cl)c4)n3n2)C1` [8-71, (S)-1-(3-(3-chlorophenyl)imidazo[1,2-b]pyridazin-6-yl)piperidin-3-amine]: the IC50 in test [2] (setting [5]) was found to be 0.012 µM.

Consider `CC(C)(O)[C@H]1CC[C@H](Nc2ccc3ncc(-c4cccc(F)c4)n3n2)CC1` [8-75, 2-(trans-4-((3-(3-fluorophenyl)imidazo[1,2-b]pyridazin-6-yl)amino)cyclohexyl)propan-2-ol], for which the IC50 in test [2] (setting [5]) stood at 0.056 µM.

Molecule `CC(C)(O)[C@H]1CC[C@H](Oc2ccc3ncc(-c4cccc(Cl)c4)n3n2)CC1` [8-77, 2-(trans-4-((3-(3-chlorophenyl)imidazo[1,2-b]pyridazin-6-yl)oxy)cyclohexyl)propan-2-ol] came in with a concentration for half-maximal inhibition (IC50) in test [2] of […].

Turning to `ON=C1CCC(Nc2ccc3ncc(-c4cccc(Cl)c4)n3n2)CC1` (stereo not drawn) [8-92, 4-((3-(3-chlorophenyl)imidazo[1,2-b]pyridazin-6-yl)amino)cyclohexanone oxime], the IC50 in test [2] (setting [5]) was 0.038 µM.

Consider `N[C@H]1CCCN(c2ccn3ncc(-c4cccc(Cl)c4)c3n2)C1` [8-96, (S)-1-(3-(3-chlorophenyl)pyrazolo[1,5-a]pyrimidin-5-yl)piperidin-3-amine], for which the IC50 in test [2] (setting [5]) is 0.094 µM.

Consider `CC(C)(O)[C@H]1CC[C@H](Nc2ccc3nnc(-c4cccc(OC(F)(F)F)c4)n3c2)CC1` [8-101], for which the IC50 in test [2] (setting [6]) was found to be 0.488 µM.

Take `FC(F)(F)Oc1cccc(-c2nnc3ccc(NC4CCOCC4)cn23)c1` [8-102, N-(Tetrahydro-2H-pyran-4-yl)-3-(3-(trifluoromethoxy)phenyl)-[1,2,4]triazolo[4,3-a]pyridin-6-amine]: the IC50 in test [2] (setting [6]) amounted to 3.25 µM.

As for `O=S1(=O)CCC(CNc2ccc3nnc(-c4cccc(OC(F)(F)F)c4)n3c2)CC1` [8-103, 4-(((3-(3-(Trifluoromethoxy)phenyl)-[1,2,4]triazolo[4,3-a]pyridin-6-y/)amino)methyl)tetrahydro-2H-thiopyran 1,1-dioxide], the 50% inhibitory concentration (IC50) in test [2] (setting [6]) stood at 3.8 µM.

With `O[C@H]1CC[C@H](Nc2ccc3nnc(-c4cccc(OC(F)(F)F)c4)n3c2)CC1` [8-104, 4-((3-(3-(Trifluoromethoxy)phenyl)-[1,2,4]triazolo[4,3-a]pyridin-6-yl)amino)-trans-cyclohexanol], in test [2] (setting [6]), the IC50 was 0.684 µM.

Consider `FC(F)(F)Oc1cccc(-c2nnc3ccc(N[C@H]4CC[C@@H](Br)CC4)cn23)c1` [8-105, 4-(cis-Bromocyclohexyl)-3-(3-(trifluoromethoxy)phenyl)-(1,2,4]triazolo[4,3-a]pyridin-6-amine], for which the IC50 in test [2] (setting [6]) is 2.49 µM.

Take `O[C@H]1CC[C@H](Nc2ccc3nnc(-c4cccc(C(F)(F)F)c4)n3c2)CC1` [8-107, 4-((3-(3-(Trifluoromethyl)phenyl)-[1,2,4]triazolo[4,3-a]pyridin-6-yl)amino)-trans-cyclohexanol]: the half-inhibitory concentration (IC50) in test [2] (setting [6]) amounted to 3.95 µM.

On to `CC(C)(O)[C@H]1CC[C@H](Nc2ccc3nnc(-c4cccc(C(F)(F)F)c4)n3c2)CC1` [8-109], for which, in test [2] (setting [6]), the IC50 turned out to be 3.87 µM.

With `FC(F)(F)c1cccc(-c2nnc3ccc(NC4CCOCC4)cn23)c1` [8-110, N-(Tetrahydro-2H-pyran-4-y/)-3-(3-(trifluoromethy/)pheny/)-[1,2,4]triazolo[4,3-a]pyridin-6-amine], the IC50 in test [2] (setting [6]) was found to be 3.17 µM.

As to `O=S1(=O)CCC(CNc2ccc3nnc(-c4cccc(C(F)(F)F)c4)n3c2)CC1` [8-111], in test [2] (setting [7]), the half-inhibitory concentration (IC50) was more than 30 µM.

Take `OCCOc1ccc2nnc(-c3cccc(C(F)(F)F)c3)n2c1` [8-112, 2-((3-(3-(trifluoromethyl)phenyl)-[1,2,4]triazolo[4,3-a]pyridin-6-yl)oxy)ethanol]: in test [2] (setting [7]), the IC50 is more than 30 µM.

Regarding `CC(C)(O)[C@H]1CC[C@H](Nc2ccc3ncc(-c4cccc(C(F)(F)F)c4)n3n2)CC1` [SGI-9481], the “sensitivity in viability assay” value in test [3] and in test [4] was “particularly sensitive” in each case.

For the origin of these results see patent EP3409278B1, “HETEROCYCLIC PROTEIN KINASE INHIBITORS” (Tolero Pharmaceuticals, Inc., priority 2011, dated 2013).
